Test results: PubChem BioAssay (NCI)
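Exposure lasted 48 hours, with cells grown in 96-well plates and compounds tested at five concentrations. At the TGI there is no net growth.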

Experiments:
Assay in all cases: DTP human tumour cell line panel, 48 h
SN12C renal = tested on: SN12C renal
BT-549 breast = tested on: BT-549 breast
A549 NSCLC = tested on: A549 NSCLC
MDA-MB-435 = tested on: MDA-MB-435
M14 melanoma = tested on: M14 melanoma
ACHN renal = tested on: ACHN renal
SNB-19 CNS = tested on: SNB-19 CNS
UACC-62 melanoma = tested on: UACC-62 melanoma
HOP-62 NSCLC = tested on: HOP-62 NSCLC
SF-295 CNS = tested on: SF-295 CNS
CCRF-CEM leukemia = tested on: CCRF-CEM leukemia
786-0 renal = tested on: 786-0 renal
IGROV1 ovarian = tested on: IGROV1 ovarian
NCI-H522 lung = tested on: NCI-H522 lung
HOP-92 NSCLC = tested on: HOP-92 NSCLC
HCT-116 colon = tested on: HCT-116 colon
T-47D breast = tested on: T-47D breast
A498 renal = tested on: A498 renal
K-562 leukemia = tested on: K-562 leukemia

SMILES	TGI (SN12C renal) [µM]	TGI (BT-549 breast) [µM]	TGI (A549 NSCLC) [µM]	TGI (MDA-MB-435) [µM]	TGI (M14 melanoma) [µM]	TGI (ACHN renal) [µM]	TGI (SNB-19 CNS) [µM]	TGI (UACC-62 melanoma) [µM]	TGI (HOP-62 NSCLC) [µM]	TGI (SF-295 CNS) [µM]	TGI (CCRF-CEM leukemia) [µM]	TGI (786-0 renal) [µM]	TGI (IGROV1 ovarian) [µM]	TGI (NCI-H522 lung) [µM]	TGI (HOP-92 NSCLC) [µM]	TGI (HCT-116 colon) [µM]	TGI (T-47D breast) [µM]	TGI (A498 renal) [µM]	TGI (K-562 leukemia) [µM]
COc1ccccc1/C=C1\NC(=S)N(/C=C2\C(=O)Oc3ccccc3C2=O)C1=O	> 100	> 100	> 100	> 100	> 100	> 100	> 100	> 100	> 100	> 100	76.5	> 100	> 100	> 100	53.3	> 100			
COc1ccc(C2CC3(c4ccccc4)ON=C(c4ccccc4)N3c3ccccc3S2)cc1 (stereo not drawn)	> 100	> 100	> 100	> 100	> 100	> 100		> 100	> 100	> 100	> 100	> 100	> 100	> 100		> 100	> 100	> 100	
O=C(c1ccc(Cl)cc1)N(C(=S)OCc1ccccn1)c1ccccc1	> 100	> 100		> 100	> 100	> 100	> 100	> 100	75.7	> 100	> 100	> 100	> 100			> 100	93.5	> 100	> 100
COc1cccc(N(CN2C(=O)CCC2C(=O)O)C(C)=O)c1 (stereo not drawn)	> 100		> 100	> 100	> 100	> 100	> 100	> 100	> 100	> 100		> 100	> 100	> 100	> 100	> 100	> 100	> 100	> 100
CCOC(=O)c1c2c(c(O)c3ccccc3c(O)n(Cc3ccccc3)c1C)C(=O)C=CC2=O	> 100		> 100	> 100	> 100	> 100	> 100	> 100	> 100	> 100	> 100	> 100	> 100	92.7	> 100	> 100	> 100	> 100	> 100
O=c1cn[nH]c(=S)n1/N=C/c1c[nH]c2ccccc12		> 100	> 100	> 100	> 100	> 100	> 100	> 100	> 100	> 100	30.3	> 100	31.8	> 100		> 100		> 100	> 100
CC(=O)Nc1nnc(S(C)(=O)=O)s1	> 100	> 100	> 100	> 100	> 100	> 100	> 100		> 100	> 100	> 100	> 100			> 100	> 100		> 100	> 100
COC(=O)CCC(C)C1CCC2C3C(C[C@H](OC(C)=O)[C@]12C)[C@@]1(C)CCC2(C[C@H]1C[C@H]3OC(C)=O)OOC1(CC[C@]3(C)C4C[C@H](OC(C)=O)[C@]5(C)C(C(C)CCC(=O)OC)CCC5C4[C@H](OC(C)=O)C[C@@H]3C1)OO2 (stereo partly drawn)	> 100	> 100	> 100	> 100	> 100	> 100	> 100		> 100	> 100	> 100	> 100	> 100	> 100		> 100			> 100
CC(OC(=O)C(CC(=O)OC(C)(C)C)NC(=O)OC(C)(C)C)C(=O)OCc1ccccc1 (stereo not drawn)	> 100	> 100	> 100	> 100	> 100	> 100	> 100	> 100	> 100	> 100	> 100	> 100	> 100	> 100		> 100	> 100		> 100
COC1OC(COC(=O)c2cc(O)c(O)c(O)c2)C(OC(=O)c2cc(O)c(O)c(O)c2)C(OC(=O)c2cc(O)c(O)c(O)c2)C1OC(=O)c1cc(O)c(O)c(O)c1 (stereo not drawn)	> 100		> 100	25.7	26.8	> 100	> 100	> 100	> 100	> 100	42.5	26.4	> 100	50.4	> 100	> 100	> 100	62.6	49.7
C/C(=N\Nc1nc2cccnc2s1)c1ccccn1	> 100	15.9	> 34.8	> 100		1.07	> 87			3.48	> 100	> 100	1.3			> 32.2		> 100	> 100
COc1ccc(C(=O)/C=C/c2ccc(OCCSCCCCCCCCCCSCCOc3ccc(/C=C/C(=O)c4ccc(OC)c(OC)c4)cc3)cc2)cc1OC	> 100	> 100	> 100	> 100	> 100	> 100		> 100	> 100	> 100	> 100	> 100	> 100	> 100		> 100	> 100	> 100	> 100
O=C(OCc1ccccc1)N(CCCCN(CCCNCc1ccccc1)C(=O)OCc1ccccc1)CCCNCc1ccccc1	0.886			0.335		2.93	1.11	3.19		> 100		1.29	2.05		2.82	0.384	3.57		
Cc1cccc(-c2cc(=O)c3c(C)cc(C)nc3[nH]2)c1	> 100	30.2	> 100		> 100	> 100	> 100	> 100	> 100	> 63.8	> 86.5	> 100	> 100	2.85	> 100	> 39.1	> 100	29.3	32.3
CN1CCC2(CC1)C(=NC1CCCCC1)NC(=S)N2c1ccccc1	> 100		> 100	> 100	> 100	> 100	> 100	> 100	> 100	> 100	> 100	> 100	> 100		> 100	> 100	> 100	> 100	> 100
CC1C(OC2O[C@@H]3O[C@@]4(C)CC[C@H]5[C@H](C)CC[C@@H](C2C)[C@@]35O4)O[C@@H]2O[C@@]3(C)CC[C@H]4[C@H](C)CC[C@@H]1[C@@]24O3 (stereo partly drawn)	> 50	> 50	> 50	> 50	> 50	> 50	> 50	> 50	> 50	> 50	> 50	> 50		> 50		> 50	> 50	> 50	> 50
CC(=O)OC12c3ccccc3-c3ccccc3C1C1C(=O)OC(=O)C12 (stereo not drawn)	> 10			> 10	> 10	> 10	> 10		> 10	> 10	> 10	> 10	> 10	> 10	> 10		> 10	> 10	> 10
CC1=CC(=O)CC(C)(C)C1/C=C/C(C)=C/C=C/C(C)=C/C=C/C=C(C)/C=C/C=C(C)/C=C/C1=C(C)CC(O)CC1(C)C (stereo not drawn)				84.8	> 100	74.3			> 100	> 100	> 100	72.5	> 100	72.7	70.9	37.4	> 100	> 100	27.1
CN1CN(c2ccccc2)C2(CCN(CCC3COc4ccccc4O3)CC2)C1=O (stereo not drawn)	83.9	42.5	> 100	89.4	42	> 100	70.8	91.6		37.2	77.4	> 100	75.2	33.4		23.2	62.3		44.9
COc1cc2c(cc1OCCCCOc1cc3c(cc1OC)C(=O)N1CCC[C@H]1C(=O)N3)N=C[C@@H]1CCCN1C2=O	21.4	16.8	44.9	14.4	33	27.9	20.5	10.3	44.5	26		39.2	20.7	3.24		> 100	28.7	19.9	6.88
O=C(NCCNCCCNC(=O)c1cc(-c2ccccc2)nc2ccccc12)c1cccc(OCc2ccccc2)c1OCc1ccccc1	3.24		3.15	3.04	3.1	3.11		3.61	3.01	3.03	3.47	3.09	3.44	3.12	3.23	3.13	4.2	2.98	3.48
CC(C)(C)c1cc2c(O)c(c1)Cc1cc(C(C)(C)C)cc(c1O)Cc1cc(C(C)(C)C)cc(c1O)Cc1cc(C(C)(C)C)cc(c1O)Cc1cc(C(C)(C)C)cc(c1O)Cc1cc(C(C)(C)C)cc(c1O)Cc1cc(C(C)(C)C)cc(c1O)Cc1cc(C(C)(C)C)cc(c1O)C2	> 50		> 50	> 50	> 50	> 50	> 50	> 50	> 50	> 50	> 50	> 50	> 50	> 50	> 50	> 50	> 50	> 50	> 50
O=c1[nH]c(=O)n(C2OC(CO)C(O)C2O)cc1Oc1ccccc1 (stereo not drawn)	> 100		> 100	> 100	> 100	> 100	> 100	> 100	> 100	> 100	> 100	> 100	> 100	> 100	> 100	> 100	> 100	> 100	> 100
COP(=O)(OC)C(O)CC(C)C (stereo not drawn)	> 100		> 100	> 100	> 100	> 100	> 100	> 100	> 100	> 100		> 100				> 100	> 100	> 100	> 100
COC(=O)[C@H](Cc1ccc(OC(C)(C)C)cc1)N[C@H](C)C(=O)N[C@@H](Cc1ccccc1)C(=O)OCc1ccccc1	> 100		> 100	> 100	> 100	> 100	> 100	> 100	> 100	> 100	> 100	> 100	> 100	> 100	> 100	> 100		> 100	63.5
